According to patent publication EP4800018A1, “PAN-KRAS INHIBITOR AND USE THEREOF IN MEDICINES” (Betta Pharmaceuticals Co., Ltd., priority 2023, dated 2025):
Where two headings read alike, the source gives them in different places.

Key:
Format in all cases: cell-based
[1] = system: KRAS-G12D mutant tumor cells AGS; assay: Cell Proliferation Inhibition Assay (AGS), Cell-titer GLO, 96 h; settings: read-out: AGS(G12D)
Experimental: KRAS-G12D mutant tumor cells AGS were seeded in low-attachment 96-well plates at a cell density of 1×10^3 cells/well and cultured overnight in a cell culture incubator. […] After incubation at 37°C for 96 h, 50 µL of Cell-titer GLO working solution was added to each well, mixed by shaking, incubated at room temperature for 10 min, and the Luminescence value was read on a multi-function microplate reader. The luminescence data were calculated and converted into inhibition percent. The inhibition percent of cell proliferation was calculated according to the following formula: Inhibition Percent = (MaxValue−MeasuredValue)/(MaxValue−Blank) × 100% [formula] […] Curve fitting was performed using GraphPad Prism software to obtain IC50 values, see Table 1.

[2] = system: KRAS-G12V mutant tumor cells SW620; assay: Cell Proliferation Inhibition Assay (SW620), Cell-titer GLO, 96 h; settings: read-out: SW620(G12V)
Experimental: KRAS-G12V mutant tumor cells SW620 were seeded in low-attachment 96-well plates at a cell density of 1×10^3 cells/well and cultured overnight in a cell culture incubator. After the cells adhered, the test compounds were added to the 96-well plates at final concentrations of 10000, 2000, 400, 80, 16, 3.2, 0.64, 0.13, 0.03, 0 nM (final concentration of DMSO was 0.5% for all). After incubation at 37°C for 96 h, 50 µL of Cell-titer GLO working solution was added to each well, mixed by shaking, incubated at room temperature for 10 min, and the Luminescence value was read on a multi-function microplate reader. The luminescence data were calculated and converted into inhibition percent. The inhibition percent of cell proliferation was calculated according to the following formula: Inhibition Percent = (MaxValue−MeasuredValue)/(MaxValue−Blank) × 100% [formula]
("Max Value" comes from the 0.5% DMSO control well, "Blank" comes from the blank control well, and "Measured Value" comes from the compound-treated well).
Curve fitting was performed using GraphPad Prism software to obtain IC50 values, see Table 1.

[3] = biological target: T1, KRAS G12D-cRAF (Homo sapiens, UniProt P01116, G12D); assay: Cellular KRAS G12D-cRAF Binding Inhibition Assay (NanoBRET, AD293 stable cells); settings: 3 h incubation
T1 construct: expressed in transfected cells
Experimental: (§1) NanoLuc® luciferase was used as the energy donor, and NanoBRET™ 618 fluorescent ligand labeled with the HaloTag® protein was used as the energy acceptor to detect protein-protein interactions in living cells. AD293 stable cells transfected with KRAS G12D-NanoLuc® luciferase and cRAF RBD-HaloTag® tag protein were seeded in 96-well plates at a cell density of 1×10^4 cells/well. Except for wells with medium added as a blank control, NanoBRET™ 618 fluorescent ligand was added to all other wells, and the plates were cultured overnight in a cell culture incubator. […] The luminescence data were calculated and converted into inhibition percent. The inhibition percent of KRAS G12D-cRAF binding was calculated according to the following formula: Inhibition Percent = (MaxValue−MeasuredValue)/(MaxValue−Blank) × 100% [formula] […] Curve fitting was performed using GraphPad Prism software to obtain IC50 values, see Table 1.

[4] = biological target: T2, KRAS G12V-cRAF (Homo sapiens, UniProt P01116, G12V); assay: Cellular KRAS G12V-cRAF Binding Inhibition Assay (NanoBRET, AD293 stable cells); settings: 3 h incubation
T2 construct: expressed in transfected cells
Experimental: as §1, with “AD293 stable cells transfected with KRAS G12D-NanoLuc® luciferase and cRAF RBD-HaloTag® tag protein were seeded in 96-well plates at a cell density of 1×10^4 cells/well.” left out, “G12V-cRAF” for “G12D-cRAF”

[5] = Homo sapiens, AGS, 96 h, AGS cells, 96 h incubation, Cell-titer GLO
[6] = Homo sapiens, SW-620, 96 h, SW620 cells, 96 h incubation, Cell-titer GLO

T1 sequence (P01116 1-188 isoform P01116-2 G12D): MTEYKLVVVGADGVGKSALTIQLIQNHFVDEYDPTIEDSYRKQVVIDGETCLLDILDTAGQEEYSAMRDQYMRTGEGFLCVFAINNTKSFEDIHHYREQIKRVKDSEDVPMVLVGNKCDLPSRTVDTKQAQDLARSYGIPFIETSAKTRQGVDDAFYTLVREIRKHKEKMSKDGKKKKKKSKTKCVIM
T2 sequence (P01116 1-188 isoform P01116-2 G12V): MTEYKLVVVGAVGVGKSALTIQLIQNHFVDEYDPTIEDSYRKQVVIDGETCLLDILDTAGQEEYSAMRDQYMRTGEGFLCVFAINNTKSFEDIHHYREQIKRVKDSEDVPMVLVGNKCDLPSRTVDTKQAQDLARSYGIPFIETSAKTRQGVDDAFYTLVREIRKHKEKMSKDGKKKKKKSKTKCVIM

With CC1OCCCn2c(c3c4cc(ccc42)-c2csc(n2)CC(NC(=O)C2C(C)C2C)C(=O)N2CCCC(N2)C(=O)OCC(C)(C)C3)-c2cc(CN3CCN(C)CC3)cnc21 [Example 193, (1r,2R,3S)-2,3-dimethyl-N-((1^5S,6^3S,4S,Z)-1^5,10,10-trimethyl-1^2-((4-methylpiperazin-1-yl)methyl)-5,7-dioxo-1^8,1^9,6^1,6^2,6^3,6^4,6^5,6^6-octahydro-1^5H,1^7H-8-oxa-1(13,15)-pyrido[3',2':7,8][1,5]oxazonino[5,6-a]indola-2(4,2)-thiazola-6(1,3)-pyridazinacycloundecaphane-4-yl)cyclopropane-1-car boxamide] the IC50 [1, 5] was 0.9 nM, the IC50 [2, 6] was 0.2 nM and the IC50 ([3]; read-out: NanoBRET KRAS G12D) was 1.2 nM. For the same molecule, the IC50 ([4]; read-out: NanoBRET KRAS G12V) was 27.1 nM.
In the case of COC1CCN(c2cnc3c(c2)-c2c4c5cc(ccc5n2CCCOC3C)-c2csc(n2)CC(NC(=O)C2CC2C(F)F)C(=O)N2CCCC(N2)C(=O)OCC(C)(C)C4)CC1 [Example 113, (1S,2S)-2-(difluoromethyl)-N-((1^5S,6^3S,4S,Z)-1^2-(4-methoxypiperidin-1-yl)-1^5,10,10-trimethyl-5,7-dioxo-1^8,1^9,6^1,6^2,6^3,6^4,6^5,6^6-octahydro-1^5H, 1^7H-8-oxa-1(13,15)-pyrido[3',2':7,8][1,5]oxazonino[5,6-alindola-2(4,2)-thiazola-6(1,3)-pyridazinacycloundecaphane-4-yl)cyclopropane-1-carbox amide], the IC50 [1, 5] is reported as 3.6 nM, the IC50 [2, 6] is reported as 0.54 nM and the IC50 ([3]; read-out: NanoBRET KRAS G12D) is reported as 7.1 nM. It also gave an IC50 ([4]; read-out: NanoBRET KRAS G12V) of 23.9 nM.
COC1CCN(c2cnc3c(c2)-c2c4c5cc(ccc5n2CCCOC3C)-c2csc(n2)CC(NC(=O)C2CC2C(F)F)C(=O)N2CCCC(N2)C(=O)OCC(C)(C)C4)C1 [Example 135, (1S,2S)-2-(difluoromethyl)-N-((1^5S,6^3S,4S,Z)-1^2-((R)-3-methoxypyrrolidin-1-yl)-1^5,10,10-trimethyl-5,7-dioxo-1^8, 1^9,6^1 ,6^2,6^3,6^4,6^5 ,6^6-octahydro-1^5H,1^7H-8-oxa-1(13,15)-pyrido[3',2':7,8][1,5]oxazonino[5,6-a]indola-2(4,2)-thiazola-6(1,3)-pyridazinacycloundecaphane-4-yl)cyclopropane-1-car boxamide] showed an IC50 ([1]; AGS cells, 96 h incubation, Cell-titer GLO) of 2.2 nM, an IC50 ([2]; SW620 cells, 96 h incubation, Cell-titer GLO) of 0.7 nM and an IC50 ([3]; read-out: NanoBRET KRAS G12D) of 2.39 nM. For the same molecule, the IC50 ([4]; read-out: NanoBRET KRAS G12V) was 10.6 nM.
Molecule CCN1CCN(c2cnc3c(c2)-c2c4c5cc(ccc5n2CCCOC3C)-c2csc(n2)CC(NC(=O)C23CC(C)(C2)C3)C(=O)N2CCCC(N2)C(=O)OCC(C)(C)C4)CC1 [Example 37, N-((1^5S,6^3S,4S,Z)-1^2-(4-ethylpiperazin-1-yl)-1^5,10,10-trimethyl-5,7-dioxo-1^8,1^9,6^1,6^2,6^3,6^4,6^56^6-octahydro-1^5H,1^7H-8-oxa-1(13,15)-pyrido[3',2':7,8][1,5]oxazonino[5,6-a]indola-2(4,2)-thiazola-6(1,3)-pyridazinacycloundecaphane-4-yl)-3-methylbicyclo[1.1.1]pentane-1-carboxamide] has an IC50 [1, 5] of 4.28 nM, an IC50 [2, 6] of 1.02 nM and an IC50 ([3]; read-out: NanoBRET KRAS G12D) of 5.32 nM. It also gave an IC50 ([4]; read-out: NanoBRET KRAS G12V) of 22.4 nM.
With C[C@H]1C[C@@H]1C(=O)N[C@H]1Cc2nc(cs2)-c2ccc3c(c2)c(c2n3[C@@H](C)CCOCc3ncc(N4CCN(C)CC4)cc3-2)CC(C)(C)COC(=O)[C@@H]2CCCN(N2)C1=O [Example 4, (1S,2S)-2-methyl-N-((1^9S,6^3S,4S,Z)-1^9,10,10-trimethyl-1^2-(4-methylpiperazin-1-yl)-5,7-dioxo-1 ^8,1^9,6^1,6^2,6^3,6^4,6^5,6^6-octahydro-1^5H,1^7H-8-oxa-1(13,15)-pyrido[3',2':7,8][1,5]oxazonino[5,6-a]indola-2(4,2)-thiazola-6(1,3)-pyridazinacycloundecaphane-4-yl)cyclopropane-1-carboxamide] the IC50 ([1]; Homo sapiens, AGS, 96 h) was 51.9 nM, the IC50 ([2]; Homo sapiens, SW-620, 96 h) was 6.2 nM and the IC50 ([3]; NanoBRET KRAS G12D) was 155 nM. For the same molecule, the IC50 ([4]; NanoBRET KRAS G12V) was 651 nM.
With CC1OCCCn2c(c3c4cc(ccc42)-c2csc(n2)CC(NC(=O)C2CC2C(F)F)C(=O)N2CCCC(N2)C(=O)OCC(C)(C)C3)-c2cc(N3CC(N4CCOCC4)C3)cnc21 [Example 115, (1S,2S)-2-(difluoromethyl)-N-((1^5S,6^3S,4S,Z)-1^5,10,10-trimethyl-1^2-(3-morpholinoazetidin-1-yl) -5,7-dioxo-1^8,1^9,6^1,6^2,6^3,6^4,6^5,6^6-octahydro-1^5H,1^7H-8-oxa-1(13,15)-pyrido[3',2':7,8][1,5]oxazonino[5,6-a]indola-2(4,2)-thiazola-6(1,3)-pyridazinacycloundecaphane-4-yl)cyclopropane-1-carbox amide] the IC50 [1, 5] was 1.72 nM, the IC50 [2, 6] was 0.9 nM and the IC50 ([3]; read-out: NanoBRET KRAS G12D) was 4.28 nM. The IC50 ([4]; read-out: NanoBRET KRAS G12V) was 16.3 nM.
Molecule CC1OCCCn2c(c3c4cc(ccc42)-c2csc(n2)CC(NC(=O)C2CC2C(F)F)C(=O)N2CCCC(N2)C(=O)OCC(C)(C)C3)-c2cc(N3CCC(N4CCOCC4)CC3)cnc21 [Example 106, (1S,2S)-2-(difluoromethyl)-N-((1^5S,6^3S,4S,Z)-1^5,10,10-trimethyl-1^2-(4-morpholinopiperidin-1-yl)-5,7-dioxo-1^8,1^9,6^1,6^2,6^3,6^4,6^5,6^6-octahydro-1^5H,1^7H-8-oxa-1(13,15)-pyrido[3',2':7,8][1,5]oxazonino[5,6-a]indola-2(4,2)-thiazola-6(1,3)-pyridazinacycloundecaphane-4-yl)cyclopropane-1-carb oxamide] has an IC50 [1, 5] of 0.86 nM, an IC50 [2, 6] of 0.24 nM and an IC50 ([3]; read-out: NanoBRET KRAS G12D) of 6.39 nM. For the same molecule, the IC50 ([4]; read-out: NanoBRET KRAS G12V) was 27.4 nM.
Work on CCN1CCN(c2cnc3c(c2)-c2c4c5cc(ccc5n2CCCOC3C)-c2coc(n2)CC(NC(=O)C2C(C)C2C)C(=O)N2NC(C(=O)OCC(C)(C)C4)C3CC2C3)CC1 [Example 197, (1r,2R,3S)-N-((1^5S,6^4S,4S,Z)-1^2-(4-ethylpiperazin-1-yl)-1^5,10,10-trimethyl-5,7-dioxo-1^8,1^9-dihydro-1^5H,1^7H-8-oxa-6^2,6^3-diaza-1(13,15)-pyrido[3',2':7,8][1,5]oxazonino[5,6-a]indola-2(4,2)-oxazola-6(2,4)-bicyclo[3.1.1]heptanacycloundecaphane-4-yl)-2,3-dimethylcyclopropane-1-carboxamide] yielded an IC50 [1, 5] of 0.03 nM, an IC50 [2, 6] of 0.01 nM and an IC50 ([3]; read-out: NanoBRET KRAS G12D) of 0.3 nM. The IC50 ([4]; read-out: NanoBRET KRAS G12V) was 2 nM.
For CC1OCCCn2c(c3c4cc(ccc42)-c2csc(n2)CC(NC(=O)C2C(C)C2C)C(=O)N2NC(C(=O)OCC(C)(C)C3)C3CC2C3)-c2cc(N3CCN(C)CC3)nnc21 [Example 195, (1r,2R,3S)-2,3-dimethyl-N-((1^5S,6^4S,4S,Z)-1^5,10,10-trimethyl-1^2-(4-methylpiperazin-1-yl)-5,7-dioxo-1^8,1^9-dihydro-1^5H,1^7H-8-oxa-6^2,6^3-diaza-1(13,15)-pyridazino[4',3':7,8][1,5]oxazonino[5,6-a]indola-2(4,2)-thiazola-6(2,4)-bicyclo[3.1.1]heptanacycloundecaphane-4-yl)cyclopropane-1-car boxamide], the IC50 [1, 5] was 0.6 nM and the IC50 [2, 6] was 0.06 nM.
